Assay type in all cases: cell-based
One test deals with Escherichia coli NIHJ. Description: MIC, Escherichia coli NIHJ (EC).
The test system of test [1] is Klebsiella pneumoniae ATCC 10031. Put plainly: MIC, Klebsiella pneumoniae ATCC 10031 (KP). To be noted: ATCC10031; Klebsiella pneumoniae ATCC 10031; read-out: MIC KP.
The test system of test [2] is Staphylococcus aureus ATCC 6538P. Put plainly: MIC, Staphylococcus aureus ATCC 6538P (SA(1)). To be noted: Staphylococcus aureus, ATCC6538P, Staphylococcus aureus ATCC 6538P; read-out: MIC SA (1). The text has this:
(§1) The minimum inhibitory concentrations (MIC: mcg/ml) of the erythromycin derivatives of the present invention and the control erythromycin derivative (*) as the known growth promoting agent on typical test bacteria are shown in the following Tables 1 to 5.
SA(1): Staphylococcus aureus ATCC 6538P

In another test the test system is Bacillus subtilis. Description: MIC, Bacillus subtilis (BS). To be noted: read-out: MIC BS.
A further test deals with Bacillus cereus IFO 3001. Put plainly: MIC, Bacillus cereus IFO 3001 (BC). To be noted: Bacillus cereus, IFO3001, Bacillus cereus IFO 3001; read-out: MIC BC.
Test [3] has as its system Staphylococcus aureus FDA 209P. Put plainly: MIC, Staphylococcus aureus FDA 209P (SA(2)). To be noted: Staphylococcus aureus, FDA209P, Staphylococcus aureus FDA 209P; read-out: MIC SA (2).
Text: as §1
SA(2): Staphylococcus aureus FDA 209P

Take `C#CC[N+](C)(C)[C@H]1C[C@@H](C)O[C@@H](O[C@@H]2[C@@H](C)[C@H](O[C@H]3C[C@@](C)(OC)[C@@H](OC=O)[C@H](C)O3)[C@@H](C)C(=O)O[C@H](CC)[C@@](C)(O)[C@H](O)[C@@H](C)C3=C(C)C[C@@]2(C)O3)[C@@H]1O` [Compound 60]: the MIC (against Escherichia coli NIHJ; in test [1]; in test [2]; in the test with Bacillus subtilis; in the test with Bacillus cereus IFO 3001; in test [3]) was above 100 µg/mL throughout.

As to `CC[C@H]1OC(=O)[C@H](C)[C@@H](O[C@H]2C[C@@](C)(OC)[C@@H](O)[C@H](C)O2)[C@H](C)[C@@H](O[C@@H]2O[C@H](C)C[C@H]([N+](C)(C)CC)[C@H]2O)[C@@]2(C)CC(C)=C(O2)[C@H](C)[C@@H](O)[C@]1(C)O` [Compound 61], the minimum inhibitory concentration (MIC) (in the test on Escherichia coli NIHJ; in test [1]; in test [2]; with Bacillus subtilis; in the test with Bacillus cereus IFO 3001; in test [3]) was above 100 µg/mL each time.

Consider `CC[C@H]1OC(=O)[C@H](C)[C@@H](O[C@H]2C[C@@](C)(OC)[C@@H](O)[C@H](C)O2)[C@H](C)[C@@H](O[C@@H]2O[C@H](C)C[C@H]([N+](C)(C)C)[C@H]2O)[C@@]2(C)CC(C)C(O2)[C@H](C)[C@@H](O)[C@]1(C)O` (stereo partly drawn) [Compound 62], for which the MIC (in the test with Escherichia coli NIHJ; in test [1]; in test [2]; in the test with Bacillus subtilis; in the test with Bacillus cereus IFO 3001; in test [3]) was above 100 µg/mL in each case.

For `CC[C@H]1OC(=O)[C@H](C)[C@@H](O[C@H]2C[C@@](C)(OC)[C@@H](O)[C@H](C)O2)[C@H](C)[C@@H](O[C@@H]2O[C@H](C)C[C@H]([N+](C)(C)CC)[C@H]2O)[C@@]2(C)CC(C)C(O2)[C@H](C)[C@@H](O)[C@]1(C)O` (stereo partly drawn) [Compound 63], the MIC (in the test with Escherichia coli NIHJ; in test [1]; in test [2]; with Bacillus subtilis; in the test with Bacillus cereus IFO 3001; in test [3]) was above 100 µg/mL in each case.

As for `CCC[N+](C)(C)[C@H]1C[C@@H](C)O[C@@H](O[C@@H]2[C@@H](C)[C@H](O[C@H]3C[C@@](C)(OC)[C@@H](O)[C@H](C)O3)[C@@H](C)C(=O)O[C@H](CC)[C@@](C)(O)[C@H](O)[C@@H](C)C3O[C@]2(C)CC3C)[C@@H]1O` (stereo partly drawn) [Compound 64], the MIC (in the test with Escherichia coli NIHJ; in test [1]; in test [2]; with Bacillus subtilis; with Bacillus cereus IFO 3001; in test [3]) was above 100 µg/mL each time.

As for `CCCC[N+](C)(C)[C@H]1C[C@@H](C)O[C@@H](O[C@@H]2[C@@H](C)[C@H](O[C@H]3C[C@@](C)(OC)[C@@H](O)[C@H](C)O3)[C@@H](C)C(=O)O[C@H](CC)[C@@](C)(O)[C@H](O)[C@@H](C)C3O[C@]2(C)CC3C)[C@@H]1O` (stereo partly drawn) [Compound 65], the MIC in the test on Escherichia coli NIHJ was above 100 µg/mL; in test [1], above 100 µg/mL; in test [2], 100 µg/mL; with Bacillus subtilis it was 50 µg/mL; with Bacillus cereus IFO 3001, 100 µg/mL; in test [3], 100 µg/mL.

Take `C=CC[N+](C)(C)[C@H]1C[C@@H](C)O[C@@H](O[C@@H]2[C@@H](C)[C@H](O[C@H]3C[C@@](C)(OC)[C@@H](O)[C@H](C)O3)[C@@H](C)C(=O)O[C@H](CC)[C@@](C)(O)[C@H](O)[C@@H](C)C3O[C@]2(C)CC3C)[C@@H]1O` (stereo partly drawn) [Compound 66]: the MIC against Escherichia coli NIHJ is above 100 µg/mL; in test [1], above 100 µg/mL; in test [2], 100 µg/mL; in the test on Bacillus subtilis, 100 µg/mL; in the test on Bacillus cereus IFO 3001, 100 µg/mL; in test [3] it was 100 µg/mL.

`C#CC[N+](C)(C)[C@H]1C[C@@H](C)O[C@@H](O[C@@H]2[C@@H](C)[C@H](O[C@H]3C[C@@](C)(OC)[C@@H](O)[C@H](C)O3)[C@@H](C)C(=O)O[C@H](CC)[C@@](C)(O)[C@H](O)[C@@H](C)C3O[C@]2(C)CC3C)[C@@H]1O` (stereo partly drawn) [Compound 67]: the minimal inhibitory concentration (MIC) (against Escherichia coli NIHJ; in test [1]; in test [2]; in the test on Bacillus subtilis; in the test with Bacillus cereus IFO 3001; in test [3]) was above 100 µg/mL throughout.

In the case of `C#CC[N+](C)(C)[C@H]1C[C@@H](C)O[C@@H](O[C@@H]2[C@@H](C)[C@H](O[C@H]3C[C@@](C)(OC)[C@@H](O)[C@H](C)O3)[C@@H](C)C(=O)O[C@H](CC)[C@@](C)(O)[C@H](O)[C@@H](C)C3O[C@]2(C)CC3C)[C@@H]1OC(C)=O` (stereo partly drawn) [Compound 68], the minimal inhibitory concentration (MIC) (against Escherichia coli NIHJ; in test [1]; in test [2]; in the test on Bacillus subtilis; with Bacillus cereus IFO 3001; in test [3]) was above 100 µg/mL throughout.

In the case of `CC[C@H]1OC(=O)[C@H](C)[C@@H](O[C@H]2C[C@@](C)(OC)[C@@H](O)[C@H](C)O2)[C@H](C)[C@@H](O[C@@H]2O[C@H](C)C[C@H](N(C)CC)[C@H]2O)[C@@]2(C)CC(C)C(O2)[C@H](C)[C@@H](O)[C@]1(C)O` (stereo partly drawn) [Compound 69], the minimal inhibitory concentration (MIC) (in the test on Escherichia coli NIHJ; in test [1]; in test [2]; with Bacillus subtilis; in the test on Bacillus cereus IFO 3001; in test [3]) was above 100 µg/mL in each case.

Regarding `CC[C@H]1OC(=O)[C@H](C)[C@@H](O[C@H]2C[C@@](C)(OC)[C@@H](O)[C@H](C)O2)[C@H](C)[C@@H](O[C@@H]2O[C@H](C)C[C@H]([N+](C)(C)C)[C@H]2O)[C@@]2(C)CC(C)C3(O[C@@]1(C)[C@H](O)[C@H]3C)O2` (stereo partly drawn) [Compound 70], the MIC (against Escherichia coli NIHJ; in test [1]; in test [2]; in the test on Bacillus subtilis; in the test with Bacillus cereus IFO 3001; in test [3]) was above 100 µg/mL in each case.

With `CC[C@H]1OC(=O)[C@H](C)[C@@H](O[C@H]2C[C@@](C)(OC)[C@@H](O)[C@H](C)O2)[C@H](C)[C@@H](O[C@@H]2O[C@H](C)C[C@H]([N+](C)(C)CC)[C@H]2O)[C@@]2(C)CC(C)C3(O[C@@]1(C)[C@H](O)[C@H]3C)O2` (stereo partly drawn) [Compound 71], the minimal inhibitory concentration (MIC) against Escherichia coli NIHJ is above 100 µg/mL; in test [1], above 100 µg/mL; in test [2] it was above 100 µg/mL; with Bacillus subtilis, 100 µg/mL; in the test on Bacillus cereus IFO 3001, 100 µg/mL; in test [3], above 100 µg/mL.

Take `CCC[N+](C)(C)[C@H]1C[C@@H](C)O[C@@H](O[C@@H]2[C@@H](C)[C@H](O[C@H]3C[C@@](C)(OC)[C@@H](O)[C@H](C)O3)[C@@H](C)C(=O)O[C@H](CC)[C@@]3(C)OC4(O[C@]2(C)CC4C)[C@H](C)[C@H]3O)[C@@H]1O` (stereo partly drawn) [Compound 72]: the minimum inhibitory concentration (MIC) (in the test on Escherichia coli NIHJ; in test [1]; in test [2]; with Bacillus subtilis; with Bacillus cereus IFO 3001; in test [3]) was above 100 µg/mL in each case.

Regarding `CC[C@H]1OC(=O)[C@H](C)[C@@H](O[C@H]2C[C@@](C)(OC)[C@@H](O)[C@H](C)O2)[C@H](C)[C@@H](O[C@@H]2O[C@H](C)C[C@H]([N+](C)(C)Cc3ccccc3)[C@H]2O)[C@@]2(C)CC(C)C3(O[C@@]1(C)[C@H](O)[C@H]3C)O2` (stereo partly drawn) [Compound 73], the MIC (with Escherichia coli NIHJ; in test [1]; in test [2]; in the test on Bacillus subtilis; in the test with Bacillus cereus IFO 3001; in test [3]) was above 100 µg/mL each time.

With `CC[C@H]1OC(=O)[C@H](C)[C@@H](O[C@H]2C[C@@](C)(OC)[C@@H](O)[C@H](C)O2)[C@H](C)[C@@H](O[C@@H]2O[C@H](C)C[C@H]([N+](C)(C)CC)[C@H]2O)[C@@]2(C)CC(C)=C(O2)[C@H](C)[C@@H](O)C1C` (stereo partly drawn) [Compound 74], the minimum inhibitory concentration (MIC) against Escherichia coli NIHJ was above 100 µg/mL; in test [1], above 100 µg/mL; in test [2], 100 µg/mL; in the test on Bacillus subtilis it was above 100 µg/mL; in the test on Bacillus cereus IFO 3001 it was 100 µg/mL; in test [3], 100 µg/mL.

As for `C#CC[N+](C)(C)[C@H]1C[C@@H](C)O[C@@H](O[C@@H]2[C@@H](C)[C@H](O[C@H]3C[C@@](C)(OC)[C@@H](O)[C@H](C)O3)[C@@H](C)C(=O)O[C@H](CC)C(C)[C@H](O)[C@@H](C)C3=C(C)C[C@@]2(C)O3)[C@@H]1O` (stereo partly drawn) [Compound 75], the MIC was above 100 µg/mL in the test on Escherichia coli NIHJ; above 100 µg/mL in test [1]; 100 µg/mL in test [2]; 100 µg/mL with Bacillus subtilis; 100 µg/mL in the test with Bacillus cereus IFO 3001; 100 µg/mL in test [3].

Take `CC[C@H]1OC(=O)[C@H](C)[C@@H](O[C@H]2C[C@@](C)(OC)[C@@H](O)[C@H](C)O2)[C@H](C)[C@@H](O[C@@H]2O[C@H](C)C[C@H]([N+](C)(C)CC)[C@H]2O)[C@](C)(O)C[C@@H](C)C(=O)[C@H](C)[C@@H](O)[C@]1(C)O` [Compound 76]: the minimal inhibitory concentration (MIC) in the test with Escherichia coli NIHJ was above 100 µg/mL; in test [1] it was above 100 µg/mL; in test [2] it was 6.25 µg/mL; with Bacillus subtilis it was below 3.12 µg/mL; in the test on Bacillus cereus IFO 3001, 6.25 µg/mL; in test [3] it was 12.5 µg/mL.

Take `C=CC[N+](C)(C)[C@H]1C[C@@H](C)O[C@@H](O[C@@H]2[C@@H](C)[C@H](O[C@H]3C[C@@](C)(OC)[C@@H](O)[C@H](C)O3)[C@@H](C)C(=O)O[C@H](CC)[C@@](C)(O)[C@H](O)[C@@H](C)C(=O)[C@H](C)C[C@@]2(C)O)[C@@H]1O` [Compound 77]: the MIC against Escherichia coli NIHJ is above 100 µg/mL; in test [1], above 100 µg/mL; in test [2], 25 µg/mL; with Bacillus subtilis, 12.5 µg/mL; in the test on Bacillus cereus IFO 3001, 12.5 µg/mL; in test [3] it was 50 µg/mL.

In general, MIC refers to the least concentration at which growth counts as inhibited.

The record behind these values is patent US4948782A, “A method of promoting the growth of domestic animals with erythromycin derivative containing composition” (Kitasato Kenkyusho, priority 1987, dated 1990).
